Measurements as given in patent publication US20260234188A1, “CHEMOKINE-BINDING PEPTIDES” (Oxford University Innovation Limited, priority 2022, published 2026).
Entries after “also recorded” stand apart in the source; their conditions may differ.

Columns and labels:
[1] = test system: panel of 24 biotinylated chemokines; assay: Phage-display screen of HD2 NNK saturation mutagenesis library; assay type: binding, human; details: for Chemokines Bound log2E 1-5 / Chemokines Bound log2E > 5: HD2 saturation mutants, chemokines on streptavidin beads, UniProt entry names
Text: FIG. 7. Exemplar results from phage display screens using saturation mutagenesis. A phage-display library was constructed using the HD2 sequence, replacing each residue encoding codon with the degenerate sequence NNK. The 16 degenerate sequences (which also encoded the parental HD2 sequence) were pooled and cloned into display phage. […] Exemplar peptides were selected such that log 2 E for at least one chemokine was greater than 5, and log 2 E for binding to control (CO5, was less than zero). […] The fold enrichment of parental HD2 is also indicated.
A phage-display library was constructed using the HD2 sequence, replacing each residue encoding codon with the degenerate sequence NNK. The 16 degenerate sequences (which also encoded the parental HD2 sequence) were pooled and cloned into display phage. […] Exemplar peptides were selected such that log 2 E for at least one chemokine was greater than 5, and log 2 E for binding to control (CO5, was less than zero). […] The fold enrichment of parental HD2 is also indicated.
A molecular level understanding of binding mechanism is needed for development of peptides as therapeutics and is usually obtained from structural analyses. As HD2 binds many chemokines this becomes a challenging task, and we explored if we could elucidate this using phage display mutagenesis. The role of each residue in HD2 for binding was examined in phage-display. A library of HD2 mutations that had NNK substituted at each residue and performed phage-display selection against a panel of 24 biotinylated chemokines, in parallel, as described in Example 7. This strategy allowed us to evaluate the impact not only of Ala substitutions, but also conservative, hydrophilic and hydrophobic substitutions, and compare with binding of parental HD2 which is also included in the library. Ala substitution removes side-chains beyond the β-carbon and can be used to infer the role of side-chain functional groups without affecting conformational flexibility of the backbone. […] These residues are within the two motifs identified previously. Other notable residues identified were Y8 and P10. We next judged the impact of Ala mutation by calculating the change in log 2 E (Δlog 2 E) between the mutant and parental HD2. A positive value of Δlog 2 E indicates increased binding, and a negative value decreased binding compared to parental HD2. […] As may be seen, the log 2 E for the parental HD2 was ~0 in these analyses indicating lack of enrichment.
Oligonucleotide pools were amplified using primers: oligo_fwd: 5′-[…] and oligo_rev2: 5′-tcgtcaccctcggcgcctcctcoggatcctccacc. Oligonucleotide PCR products were cloned into plasmid prSTOP4Nsi using NEB Builder HiFi Assembly following instructions of the manufacturer. The vector pool was used to transform electrocompetent Invitrogen ElectroMAX™ DH5α-E™ cells. Plasmid DNA was harvested by MaxiPrep (GeneJet Plasmid Maxiprep Kit) and was transformed into SS320 phage display electrocompetent cells (Lucigen), following the manufacturer's protocol, resuspended in 950 μL recovery media for each electroporation, transferred to 50 mL Falcon tubes, 100 μL 1011 CFU/mL M13KO7 helper phage (NEB) added and shaken at 37° C., 220 RPM for 1 h. 1 mL recovery culture was added to 2YT medium containing +50 ug/mL carbenicillin and 25 ug/mL kanamycin, and grown overnight at 37C, 220 rpm. Phage was precipitated from the culture supernatant by adding 22.5 mL of supernatant to 4.5 mL 20% PEG 8000/2.5 M NaCl, incubating on ice for 30 min, and centrifuging at 10,000 RPM, 4° C. for 10 min, and resuspending phage in 1 ml of PBT, followed by centrifugation at 13000 RPM, 4° C., for 10 min. […]

[2] = test system: CC and CXC chemokines; assay: Chemokine-induced cell migration assays, pooled over chemokines (meta-analysis); assay type: cell-based, human; details: single HD2 mutations; nine CC and six CXC chemokines
Description: FIG. 16. Effect of HD2 alanine mutations on chemotaxis. […] All experiments were performed as three technical and three biological replicates, and individual data points are indicated, and coloured by the chemokine used. Statistically significant differences (compared to control, coloured blue), using Dunnett's test with correction for multiple comparisons, are indicated by asterisks: ****=P≤0.0001, ***=P≤0.001, **=P≤0.01, *=P≤[…] observations per group (three technical and three biological replicates for each chemokine). FIG. 16B, Faceted plots of change in median normalised cell count between alanine mutant and wild-type HD2 peptide obtained in cell migration assays (Y-axis, Δmedian normalised cell count) versus alanine mutated residue (X-axis). Chemokines used for each experiment are indicated in the strip to the right of each plot. Statistically significant differences compared to parental HD2 are shown as red dots. […] Scatterplot of Δmedian normalised cell count (Y-axis, obtained in cell migration assays) versus Δlog 2 E (obtained in phage-display experiments) for peptide:chemokine pairs. Individual data points indicate peptide chemokine pairs for which both cell migration and Δlog 2 E were available. Linear regression plot with 95% confidence interval, Spearman correlation coefficient (R) and statistical significance (p) are shown.
FIG. 19. […] All experiments were performed as at least three technical and three biological replicates, and individual data points are indicated, and coloured by the chemokine used, for all chemokines studied (n=16 chemokines). Statistically significant differences (compared to control, coloured blue), using Dunnett's test with correction for multiple comparisons, are indicated by asterisks: ****=P≤0.0001, ***=P≤0.001, **=P≤0.01, *=P≤0.05.
(§1) Briefly, cell migration assays use THP1 cells (human monocyte) and primary human buffy coat white cells (consisting of neutrophil granulocytes, monocytes, and lymphocytes), and activated T-cells. THP1 cells and primary monocytes respond to CCL2, CCL3, CCL5, CCL8 and CXCL4, granulocytes to CXCL1 and CXCL8, activated T-cells to CXCL9/10/11. Assays are performed in 96-well Boyden chambers, and migrated cells counted and characterized using and ATTUNE Flow Cytometer as described. Triplicate assays are performed at the EC80 dose of each chemokine at 10 μM peptide concentration.
The J:CXCR1 cell line was generated by transfecting Jurkat cells by electroporation with PvuI-linearized plasmid D1398 and selecting with blasticidin (Sigma-Aldrich, Cat #203350, […]). […] J:CXCR1 cells were cultured in RPMI-1640 media (Gibco), supplemented with 10% FBS and 5 mM L-Glutamine with blasticidin. For J:CXCR1 migration assays, 300,000 cells/well were added to the top chamber of a 3 μm Transwell insert (Corning) in 50 μL of migration media (RPMI-1640, 0.5% FBS, 4 mM L-Glutamine, 0.05% DMSO). The bottom chamber contained 150 μL of chemokine, with or without peptide. Cells were migrated at 37° C. in 5% CO2 for 4 hours. The plate was incubated on a shaking platform for 10 minutes, 800 rpm, at 37° C., and 150 μL from the bottom of the plate transferred into a U-bottom plate containing 50 μL of migration media.

[3] = biological target: T1, CXCL9 (Homo sapiens, UniProt Q07325); assay: CXCL9-induced activated T-cell migration, transwell assay; assay type: cell-based; details: HD2 mutant peptides 10 μM, chemokine at EC80
T1 construct: purchased Peprotech
T1 sequence (Q07325 23-125): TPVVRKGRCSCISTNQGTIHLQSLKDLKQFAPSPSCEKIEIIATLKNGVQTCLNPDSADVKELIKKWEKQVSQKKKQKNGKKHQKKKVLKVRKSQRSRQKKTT
Description: FIG. 2. […] BK1.2 is described in (Darlot, 2020). […] Chemokines used are indicated by the name, followed in parenthesis by the supplier code (P in supplier code indicates Peprotech). […] All experiments were performed at EC80 doses of indicated chemokine. Data are shown as box-whisker plots of three technical and three biological replicates. Statistically significant differences (compared to control, indicated by #), using Dunnett's test with correction for multiple comparisons, are indicated by asterisks: ****=P≤0.0001, ***=P≤0.001, **=P≤0.01, *=P≤0.05.
as §1
(§2) The J:CXCR1 cell line was generated by transfecting Jurkat cells by electroporation with PvuI-linearized plasmid D1398 and selecting with blasticidin (Sigma-Aldrich, Cat #203350, […]). […] J:CXCR1 cells were cultured in RPMI-1640 media (Gibco), supplemented with 10% FBS and 5 mM L-Glutamine with blasticidin. For J:CXCR1 migration assays, 300,000 cells/well were added to the top chamber of a 3 μm Transwell insert (Corning) in 50 μL of migration media (RPMI-1640, 0.5% FBS, 4 mM L-Glutamine, 0.05% DMSO). The bottom chamber contained 150 μL of chemokine, with or without peptide. Cells were migrated at 37° C. in 5% CO2 for 4 hours. The plate was incubated on a shaking platform for 10 minutes, 800 rpm, at 37° C., and 150 μL from the bottom of the plate transferred into a U-bottom plate containing 50 μL of migration media. Cell counts were determined by Attune NxT Flow Cytometer Plate Reader (ThermoFisher), based on cell size parameters FSC-H/SSC-H. Experiments were performed in 3 technical and 3 biological replicates. THP-1 migration assays were carried out using methods known in the art. Activated T-cell assays were carried out using methods known in the art, with the following modifications in the isolation process. Peripheral blood cells were obtained from leucocyte cones (NHS Blood Transfusion Services), following which, T-cells were isolated using two rounds of human CD8+ T-cell isolation kit (480011, BioLegend). At day 10 after activation, T-cells were frozen at 20 E6 cells/ml in TexMACS medium supplemented with 10% DMSO (D2650, Sigma) in liquid nitrogen. Prior to use, activated T-cells were recovered for 24 hours in TexMACs medium at 0.3 E6 cells/ml and incubated at 37° C. in 5% CO2. Chemokine sources are described in Supplementary information Table 3. Statistical significances between control experimental groups was evaluated using Dunnett's test. IC50 experiments were performed at the EC80 dose of chemokine. EC80 was calculated by fitting a chemokine dose-response curve with 3 parameters (fixing the top to 100%). IC50 was calculated by fitting an inhibitor response curve with 4 parameters.

[4] = biological target: T2, CCL21 (Homo sapiens, UniProt O00585); assay: CCL21-induced cell migration assay; assay type: cell-based; details: HD2 mutant peptides 10 μM, chemokine at EC80
T2 sequence (O00585 24-134): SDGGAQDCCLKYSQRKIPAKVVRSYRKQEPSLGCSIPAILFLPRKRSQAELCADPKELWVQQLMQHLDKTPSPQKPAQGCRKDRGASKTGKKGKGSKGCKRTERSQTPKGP
Description: FIGS. 24 and 25. Effect of exemplar mutant HD2 peptides on chemotaxis. Box-whisker plots showing the effect of the exemplar mutant HD2 peptides on cell migration induced by indicated human chemokines. All experiments were performed as at least three technical and between one to three biological replicates, and individual data points are indicated. […] Chemokine and cell type names are indicated. HD2SCR is a scrambled version of HD2 used as negative control. All peptides were at 10 μM final concentration and chemokines at EC80 doses. Statistically significant differences (compared to control, coloured blue), using Dunnett's test with correction for multiple comparisons, are indicated by asterisks: ****=P≤0.0001, ***=P≤0.001, **=P≤0.01, *=P≤0.05.
as §2
Migration assays using THP1, activated T-cell (ATC) and J:CXCR1 (Jurkat cells stably transfected with CXCR1 receptor) were performed as described previously. IC50 experiments were performed at the EC80 dose of chemokine. EC80 was calculated by fitting a chemokine dose-response curve with 3 parameters (fixing the top to 100%). IC50 was calculated by fitting an inhibitor response curve with 4 parameters. R-packages used were ggupset_0.3.0, DescTools_0.99.44, and drc_3.0-1.

[5] = test system: panel of 25 biotinylated chemokines (15 CC-class chemokines, 10 CXC-class chemokines); assay: Phage-display screen of HD845 NNK mutagenesis library; assay type: binding, human; details: for peak log 2 E: best mutation at each residue
Description: NNK mutagenesis library construction and screening was performed for the HD845 peptide using the methods described in Example 19. […] Following library selection with each chemokine, the enrichment (E) of each peptide was calculated in comparison to the input library, and expressed the enrichment as log 2 E, as this metric is correlated with binding affinity.
A two-pronged strategy was used to identify individual peptides with mutations that improve chemokine binding over the parental peptide HD845. To identify mutations that improve overall chemokine binding affinity, the best performing mutations were selected at each residue by their enhancement of mean log 2 E (FIG. 27A). To add in mutations that improve chemokine binding diversity, the best performing mutations at each residue were identified by their enhancement of peak log 2 E (FIG. 27B).

Sequence	Chemokines Bound log2E 1-5 [1]	Chemokines Bound log2E > 5 [1]	mean log 2 E compared to parental HD2 ([1]; over CC chemokines)	mean log 2 E compared to parental HD2 ([1]; over all chemokines)	peak log 2 E [5]	mean log 2 E compared to parental HD845 ([5]; over CC chemokines)	mean log 2 E compared to parental HD845 ([5]; over all chemokines)	also measured
EEDDYDAYAPLTCYFT [HD2_D6]	CCL15, CCL17, CCL18, CCL19,; also recorded: CCL22, CCL28, CCL3, CCL4,; also recorded: CCL5, CCL8, X3CL1, CXL10,; also recorded: CXL11, CXL14, IL8	CCL1, CCL11,; also recorded: CCL2, SDF1,; also recorded: CXL13	significant improvement	significant improvement	–	–	–	chemotaxis inhibition compared with HD2, meta-analysis [2]: did not improve chemotaxis in any assay
EEDDYTAYAPITCYFT [HD2_I11]	CCL1, CCL11, CCL17, CCL18,; also recorded: CCL19, CCL2, CCL22, CCL28,; also recorded: CCL3, CCL4, CCL5, CCL8, X3CL1,; also recorded: CXL10, CXL11, SDF1, CXL13, IL8	CCL15	significant improvement	significant improvement	–	–	–	chemotaxis compared with the parental HD2 peptide [3]: significant reduction in chemotaxis; chemotaxis compared with the parental HD2 peptide [4]: significant reduction in chemotaxis
EDEDYEDFFAPVTCYF [K10A]	–	–	–	–	highest peak log 2 E at that residue	significant improvement	significant improvement	–
EDEDYWDFFKPVTCYF [E6W]	–	–	–	–	highest peak log 2 E at that residue	–	significant improvement	mean log 2 E compared to parental HD845 ([5]; over XC chemokines): significant improvement
EDEDYFDFFKPVTCYF [E6F]	–	–	–	–	–	significant improvement	–	–
